The values below come from patent US20110130380A1, “Heteroaryl Kinase Inhibitors” (priority 2009, published 2011).

Chain of Cdk9/cyclinT1 (P50750 whole entry): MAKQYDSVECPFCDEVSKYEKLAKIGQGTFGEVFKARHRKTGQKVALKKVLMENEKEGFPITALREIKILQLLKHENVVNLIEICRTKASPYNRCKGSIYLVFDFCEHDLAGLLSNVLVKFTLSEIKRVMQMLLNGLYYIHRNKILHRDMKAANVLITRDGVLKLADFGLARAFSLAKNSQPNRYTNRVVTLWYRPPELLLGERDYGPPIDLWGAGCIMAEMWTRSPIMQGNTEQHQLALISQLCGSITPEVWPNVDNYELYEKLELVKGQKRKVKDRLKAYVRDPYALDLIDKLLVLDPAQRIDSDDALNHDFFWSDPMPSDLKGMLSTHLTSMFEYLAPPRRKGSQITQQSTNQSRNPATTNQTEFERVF
Chain of Cdk9/cyclinT1 (O60563 whole entry partner): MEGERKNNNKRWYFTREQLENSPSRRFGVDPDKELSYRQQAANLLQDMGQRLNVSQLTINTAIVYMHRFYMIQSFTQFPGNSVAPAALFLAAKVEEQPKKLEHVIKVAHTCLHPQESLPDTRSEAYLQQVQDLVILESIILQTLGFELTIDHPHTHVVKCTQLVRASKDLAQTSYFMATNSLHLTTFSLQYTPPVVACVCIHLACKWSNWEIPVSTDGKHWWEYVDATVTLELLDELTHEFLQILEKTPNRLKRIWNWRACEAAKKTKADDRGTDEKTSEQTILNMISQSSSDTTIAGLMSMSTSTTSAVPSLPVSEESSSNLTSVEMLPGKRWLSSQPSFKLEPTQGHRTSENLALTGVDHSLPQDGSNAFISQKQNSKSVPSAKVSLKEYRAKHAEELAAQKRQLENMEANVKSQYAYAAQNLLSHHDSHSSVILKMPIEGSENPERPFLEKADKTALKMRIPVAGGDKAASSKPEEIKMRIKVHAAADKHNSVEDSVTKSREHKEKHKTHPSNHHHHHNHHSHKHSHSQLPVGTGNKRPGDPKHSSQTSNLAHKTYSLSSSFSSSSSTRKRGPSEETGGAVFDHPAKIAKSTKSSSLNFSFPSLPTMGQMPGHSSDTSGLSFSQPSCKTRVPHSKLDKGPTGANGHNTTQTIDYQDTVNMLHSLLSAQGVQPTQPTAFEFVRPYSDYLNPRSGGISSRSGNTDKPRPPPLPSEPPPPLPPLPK

This experiment concerns the target Cdk9/cyclinT1 (Homo sapiens, UniProt P50750). In words: Cdk9/cyclinT1 IMAP Protocol (fluorescence polarization kinase assay). The settings on record: Cdk9_cyclinT1_IC50, Table V; generated using one of the two Cdk9/cyclinT1 assays (IMAP or Alpha Screen), not stated which; ATP 6 uM.
As to `COC(=O)N1CCC[C@@H](C(=O)Nc2cc(-c3cccc(NCC4CCOCC4)n3)c(Cl)cn2)C1` [Example 84, (R)-3-{5′-Chloro-6-[(tetrahydro-pyran-4-ylmethyl)-amino]-[2,4′]bipyridinyl-2′-ylcarbamoyl}-piperidine-1-carboxylic acid methyl ester], 419 nM corresponded to half-maximal inhibition (IC50).

The molecule `O=C(Nc1cc(-c2cccc(N3CCCC3)n2)c(Cl)cn1)[C@@H]1CCCNC1` [Example 44, (R)-Piperidine-3-carboxylic acid (5′-chloro-6-pyrrolidin-1-yl-[2,4′]bipyridinyl-2′-yl)-amide] showed an IC50 of 181 nM. `C[C@H]1CC[C@H](C(=O)Nc2cc(-c3ccc(F)c(NCC4CCOCC4)n3)c(Cl)cn2)CN1` (single isomer, unassigned) [Example 190] gave an IC50 of 3 nM.

`COC[C@@H]1C[C@@H](C(=O)Nc2cc(-c3nc(NCC4CCOC(C)(C)C4)ccc3Cl)c(Cl)cn2)CN1` (stereo partly drawn) [Example 186, (3R,5S)-5-Methoxymethyl-pyrrolidine-3-carboxylic acid {3,5′-dichloro-6-[(2,2-dimethyl-tetrahydro-pyran-4-ylmethyl)-amino]-[2,4′]bipyridinyl-2′-yl}-amide] came in with an IC50 of 1 nM. In turn, `CC(C)CNc1cccc(-c2cc(NC(=O)[C@@H]3CCCNC3)ncc2Cl)n1` [Example 22, (R)-Piperidine-3-carboxylic acid (5′-chloro-6-isobutylamino-[2,4′]bipyridinyl-2′-yl)-amide] came in with an IC50 of 33 nM. For `O=C(Nc1cc(-c2cccc(NCc3ccc(F)cc3)n2)c(Cl)cn1)[C@@H]1CCCNC1` [Example 53, (R)-Piperidine-3-carboxylic acid [5′-chloro-6-(4-fluoro-benzylamino)-[2,4′]bipyridinyl-2′-yl]-amide], the IC50 is less than 8 nM. In turn, `O=C(Nc1cc(-c2cccc(NCC3CCOCC3)n2)c(Cl)cn1)[C@@H]1CN[C@H](CF)C1` [Example 178, (3S,5S)-5-Fluoromethyl-pyrrolidine-3-carboxylic acid {5′-chloro-6-[(tetrahydro-pyran-4-ylmethyl)-amino]-[2,4′]bipyridinyl-2′-yl}-amide] came in with an IC50 of 1 nM. Molecule `C[C@@H]1CC(CNc2cccc(-c3cc(NC(=O)[C@@H]4CCCNC4)ncc3Cl)n2)C[C@H](C)O1` (stereo partly drawn) [Example 159, (R)-Piperidine-3-carboxylic acid {5′-chloro-6-[((2R,6S)-2,6-dimethyl-tetrahydro-pyran-4-ylmethyl)-amino]-[2,4′]bipyridinyl-2′-yl}-amide] showed an IC50 of 1 nM.

`O=C(Nc1cc(-c2nc(NCC3CCOCC3)ccc2Cl)c(Cl)cn1)C1CNCCO1` (stereo not drawn) [Example 87, Morpholine-2-carboxylic acid {3,5′-dichloro-6-[(tetrahydro-pyran-4-ylmethyl)-amino]-[2,4′]bipyridinyl-2′-yl}-amide] showed an IC50 of 18 nM. With `O=C(Nc1cc(-c2cccc(NCc3cccc(F)c3)n2)c(Cl)cn1)C1CCCCC1` [Example 2, Cyclohexanecarboxylic acid [5′-chloro-6-(3-fluoro-benzylamino)-[2,4′]bipyridinyl-2′-yl]-amide], the IC50 was found to be 134 nM.

Regarding `O=C(Nc1cc(-c2cccc(NCC3CCOCC3)n2)c(Cl)cn1)[C@H]1CNC[C@@H](C(F)(F)F)C1` (single isomer, unassigned) [Example 182], half-maximal inhibition (IC50) was put at 4 nM. As to `O=C(Nc1cc(-c2cccc(NCC3CCOCC3)n2)c(Cl)cn1)[C@@H]1CNC[C@@H](C(F)(F)F)C1` (single isomer, unassigned) [Example 163], the 50% inhibitory concentration (IC50) was determined as 129 nM.

In the case of `COC(=O)N1CCC[C@H](C(=O)Nc2cc(-c3cccc(NCC4CCOCC4)n3)c(Cl)cn2)C1` [Example 90, (S)-3-{5′-Chloro-6-[(tetrahydro-pyran-4-ylmethyl)-amino]-[2,4′]bipyridinyl-2′-ylcarbamoyl}-piperidine-1-carboxylic acid methyl ester], the IC50 was 8 nM. The value for `C[C@@H]1CC(CNc2cccc(-c3cc(NC(=O)[C@H]4CNCCO4)ncc3Cl)n2)C[C@H](C)O1` (stereo partly drawn) [Example 169, (R)-Morpholine-2-carboxylic acid {5′-chloro-6-[((2R,6S)-2,6-dimethyl-tetrahydro-pyran-4-ylmethyl)-amino]-[2,4′]bipyridinyl-2′-yl}-amide] was 16 nM. `C[C@H]1CC[C@@H](C(=O)Nc2cc(-c3cccc(NCC4CCOCC4)n3)c(Cl)cn2)CN1` (single isomer, unassigned) [Example 141] registered an IC50 of less than 8 nM. With `CC1(CNc2cccc(-c3cc(NC(=O)[C@@H]4CCCNC4)ncc3Cl)n2)CCOCC1` [Example 207, (R)-Piperidine-3-carboxylic acid {5′-chloro-6-[(4-methyl-tetrahydro-pyran-4-ylmethyl)-amino]-[2,4′]bipyridinyl-2′-yl}-amide], half-maximal inhibition (IC50) required 1 nM. The value for `CC[C@@H]1CC[C@@H](C(=O)Nc2cc(-c3cccc(NCC4CCOCC4)n3)ccn2)CN1` (racemic) [Example 230, (3R,6R)-/(3S,6S)-6-Ethyl-piperidine-3-carboxylic acid {6-[(tetrahydro-pyran-4-ylmethyl)-amino]-[2,4′]bipyridinyl-2′-yl}-amide] was 2 nM.

As for `O=C(Nc1cc(-c2cccc(NCC3CCCCCC3)n2)c(Cl)cn1)[C@@H]1CCCNC1` [Example 19, (R)-Piperidine-3-carboxylic acid [5′-chloro-6-(cycloheptylmethyl-amino)-[2,4′]bipyridinyl-2′-yl]-amide], the IC50 was less than 8 nM.

`CC(C)CCNc1cccc(-c2cc(NC(=O)[C@@H]3CCCNC3)ncc2Cl)n1` [Example 23, (R)-Piperidine-3-carboxylic acid [5′-chloro-6-(3-methyl-butylamino)-[2,4′]bipyridinyl-2′-yl]-amide]: the IC50 worked out at 9 nM. Molecule `O=C(Nc1cc(-c2nc(NCC3CCOCC3)c(Cl)cc2Cl)c(Cl)cn1)[C@@H]1CCCNC1` [Example 134, (R)-Piperidine-3-carboxylic acid {3,5,5′-trichloro-6-[(tetrahydro-pyran-4-ylmethyl)-amino]-[2,4′]bipyridinyl-2′-yl}-amide] had an IC50 of less than 8 nM.

In turn, `C[C@@H](Nc1cccc(-c2cc(NC(=O)[C@@H]3CCCNC3)ncc2Cl)n1)C1CCOCC1` [Example 137, (R)-Piperidine-3-carboxylic acid {5′-chloro-6-[(R)-1-(tetrahydro-pyran-4-yl)-ethylamino]-[2,4′]bipyridinyl-2′-yl}-amide] yielded a half-maximal inhibitory concentration (IC50) of 11 nM. For `CCC1(CNc2nc(-c3cc(NC(=O)[C@@H]4CCCNC4)ncc3Cl)ccc2F)CCOCC1` [Example 209, (R)-Piperidine-3-carboxylic acid {5′-chloro-6-[(4-ethyl-tetrahydro-pyran-4-ylmethyl)-amino]-5-fluoro-[2,4′]bipyridinyl-2′-yl}-amide], the IC50 came out at 1 nM. Turning to `O=C(Nc1cc(-c2cccc(NCC3CCOCC3)n2)c(Cl)cn1)[C@H]1CNC[C@@H](C(F)(F)F)C1` (racemic) [Example 148, (3R,5S)-/(3S,5R)-5-Trifluoromethyl-piperidine-3-carboxylic acid {5′-chloro-6-[(tetrahydro-pyran-4-ylmethyl)-amino]-[2,4′]bipyridinyl-2′-yl}-amide], the 50% inhibitory concentration (IC50) is less than 8 nM. `COC1(CNc2ccc(Cl)c(-c3cc(NC(=O)[C@@H]4CCCNC4)ncc3Cl)n2)CCOCC1` [Example 192, (R)-Piperidine-3-carboxylic acid {3,5′-dichloro-6-[(4-methoxy-tetrahydro-pyran-4-ylmethyl)-amino]-[2,4′]bipyridinyl-2′-yl}-amide] returned an IC50 of 1 nM.
